Read-outs that look alike come from different tables or passages of the source.
Columns and labels:
[1] = test system: SZ95 cells; experiment: Inhibition of DNA synthesis and proliferation of immortalized human sebocytes SZ95; type: cell-based; settings: EGF-stimulated SZ95 sebocytes, tritium thymidine incorporation, read-out: Supp. DNA Synt. SZ95 IC50
Method: The immortalized human sebocyte line SZ95 was provided by Prof. C Zouboulis [C C Zouboulis, H Seltmann, H Neitzel, C E Orfanos, Establishment and characterization of an immortalized human sebaceous gland cell line (SZ95). J. Invest. Dermatol. 113(6):1011-1020 (1999), the entire disclosure of which is incorporated by reference herein]. These adherent growing cells were cultured in serum-free Sebomed Complete (Biochrom). Recombinant EGF was added in order to stimulate DNA synthesis and proliferation of the SZ95 cells. Test items were added in concentrations from 0.1 up to 100 μM.
The DNA synthesis of proliferating cells was detected by incorporation of radiolabelled tritium thymidine (3HT) and counting at a beta counter. Based on these raw data the relative proliferation response in relation to cells cultured in the absence of test compound (100% control) was calculated. IC50 values of proliferation suppression were assessed by computer-assisted graphical evaluation.

[2] = target: T1, cytosolic aminopeptidase (cAAP) purified from Jurkat cells (Homo sapiens, UniProt P55786); experiment: Inhibition of enzymatic activity of cytosolic aminopeptidase (cAAP); type: biochemical; settings: highest test item concentration 25 μM; for IC50: read-out: meas. IC50 (cAAP)
T1 construct: The cytosolic aminopeptidase (cAAP) was purified from Jurkat cells; endogenous in cells; host or cells: Jurkat cells (enzyme purified from them)

[3] = test system: purified, recombinant DP8 and DP9; experiment: Inhibition of enzymatic activity of DP8/9; type: biochemical; settings: highest test item concentration 25 μM
Method: (§1) The inhibition of the enzymatic activity of DPIV and related enzymes was measured by using purified, recombinant human DPIV (purified from transfected Sf9 cells, final enzyme concentration approx. 1 nM) as well as purified, recombinant DP8 and DP9 (purchased from Biomol). The assay was performed in 0.05M TRIS/HCl puffer pH 7.5, supplemented with 0.05% Triton (v/v), 0.05% BSA (w/v), 2 mM MgCl2.
(§2) The enzymatic activity of DPIV was assessed by the hydrolysis of the fluorogenic substrates H-Gly-Pro-4-amino-7-methyl coumarine (abbreviation of fluorogenic group AMC; purchased from Bachem) or (Ala-Pro)2-Rhodamine 110 (abbreviation R110). The final substrate concentrations were 50 μM or 1 μM, respectively.
(§3) The assay was performed in white microtitre plates for fluorescence measurements. The test items, substrate and enzyme were diluted in assay buffer. The highest test item concentration used was 25 μM. For the calculation of IC50 values, at least 16 log 2-dilutions of each test item were analyzed. As controls, the DPIV activity in the absence of test items as well as the spontaneous hydrolysis of the substrate was determined.
(§4) The release of the fluorescent hydrolysis product AMC was measured at an excitation wavelength of 380 nm and an emission wavelength of 460 nm by using a microtitre fluorescence reader immediately after substrate addition as well as after 30, 60 and 120 min. The hydrolysis of the substrate (Ala-Pro)2-Rhodamine 110 was determined at an exitation wavelength of 488 nm and emission wavelength of 530 nm.

[4] = target: T2, purified, recombinant human DPIV (Homo sapiens, UniProt P27487); experiment: Inhibition of enzymatic activity of DPIV (fluorogenic substrate hydrolysis); type: biochemical; settings: highest test item concentration 25 μM
T2 construct: made in house; host or cells: Sf9 insect cells
Method: as §1, §2, §3, §4

[5] = test system: T lymphocytes (T cells); experiment: Suppression of DNA synthesis of PHA-stimulated T lymphocytes; type: cell-based; settings: tritium thymidine incorporation, read-out: Supp. DNA Synt. T-cell IC50
Method: Peripheral blood mononuclear cells (PBMC) from healthy human volunteers were freshly isolated by density gradient centrifugation. T lymphocytes (T cells) were isolated from PBMC fractions via nylon wool adherence. Both cell populations were cultured in serum free lymphocyte medium (AIMV medium, Invitrogen) and stimulated by addition of 1 μg/ml Phytohemagglutinine for 48 hours in 96 well flat-bottom microtiter plates. Test compounds were added at concentration ranges from 0.1 up to 250 μM over the total assay period.
DNA synthesis of proliferating PBMC was assessed by incorporation of nucleotide analogue bromdesoxyuridine (BrdU) and subsequent detection of BrdU by ELISA technique (Cell Proliferation Biotrak™ ELISA system, GE Health Care) according to the protocol of the manufacturer. DNA synthesis of proliferating T cells was determined by incorporation of radio labelled tritium thymidine and subsequent radio detection.
Data output was based on raw data and calculation of relative proliferation response in relation to PHA-activated T cells in the absence of test compound (100% control). The IC50 value of proliferation suppression was assessed by graphical evaluation.

[6] = target: T3, aminopeptidase N (APN), purified recombinant human enzyme (Homo sapiens, UniProt P15144); experiment: Inhibition of enzymatic activity of aminopeptidase N (fluorogenic substrate hydrolysis); type: biochemical; settings: highest test item concentration 25 μM
T3 construct: made in house; host or cells: ECV cells (transfected)
Method: The inhibition of the enzymatic activity of aminopeptidase N (APN) was measured by using purified, recombinant human enzyme (purified from transfected ECV cells, final enzyme concentration approx. 1 nM). […] The assay was performed in 0.05M TRIS/HCl puffer pH 7.5, supplemented with 0.05% Triton (v/v), 0.05% BSA (w/v), 2 mM MgCl2.
The aminopeptidase acitivities wer assessed by the hydrolysis of the fluorogenic substrates H-Ala-4-amino-7-methyl coumarine (abbreviation of fluorogenic group AMC; purchased from Bachem) or (Ala-)2-Rhodamine 110 (abbreviation R110). The final substrate concentrations were again 50 and 1 μM, respectively.
as §3
The release of the fluorescent hydrolysis products AMC and R110 was measured as described above for DPIV substrates.

[7] = test system: NHEK cells; experiment: Inhibition of DNA synthesis and proliferation of normal human epidermal keratinocytes (NHEK); type: cell-based; settings: EGF-stimulated NHEK, BrdU incorporation, read-out: Supp. DNA Synt. NHEK IC50
Method: NHEK cells (primary cells from person) were purchased from PromoCell. For these assay the adherent cells were cultured in serum-free Keratinocyte Growth medium 2 supplemented with epidermal growth factor (EGF) and bovine pituitary extract for 48 hours in flat-bottom microtiter plates. EGF stimulates the DNA synthesis and proliferation of these cells. Test items were added in concentrations from 0.1 up to 100 μM.
The DNA synthesis was assessed by incorporation of bromdesoxyuridine (BrdU) and subsequent detection of BrdU by ELISA technique. Based on these raw data the relative proliferation response in relation to cells cultured in the absence of test compound (100% control) was calculated. IC50 values of proliferation suppression were assessed by computer-assisted graphical evaluation.

T1 sequence (P55786 whole entry): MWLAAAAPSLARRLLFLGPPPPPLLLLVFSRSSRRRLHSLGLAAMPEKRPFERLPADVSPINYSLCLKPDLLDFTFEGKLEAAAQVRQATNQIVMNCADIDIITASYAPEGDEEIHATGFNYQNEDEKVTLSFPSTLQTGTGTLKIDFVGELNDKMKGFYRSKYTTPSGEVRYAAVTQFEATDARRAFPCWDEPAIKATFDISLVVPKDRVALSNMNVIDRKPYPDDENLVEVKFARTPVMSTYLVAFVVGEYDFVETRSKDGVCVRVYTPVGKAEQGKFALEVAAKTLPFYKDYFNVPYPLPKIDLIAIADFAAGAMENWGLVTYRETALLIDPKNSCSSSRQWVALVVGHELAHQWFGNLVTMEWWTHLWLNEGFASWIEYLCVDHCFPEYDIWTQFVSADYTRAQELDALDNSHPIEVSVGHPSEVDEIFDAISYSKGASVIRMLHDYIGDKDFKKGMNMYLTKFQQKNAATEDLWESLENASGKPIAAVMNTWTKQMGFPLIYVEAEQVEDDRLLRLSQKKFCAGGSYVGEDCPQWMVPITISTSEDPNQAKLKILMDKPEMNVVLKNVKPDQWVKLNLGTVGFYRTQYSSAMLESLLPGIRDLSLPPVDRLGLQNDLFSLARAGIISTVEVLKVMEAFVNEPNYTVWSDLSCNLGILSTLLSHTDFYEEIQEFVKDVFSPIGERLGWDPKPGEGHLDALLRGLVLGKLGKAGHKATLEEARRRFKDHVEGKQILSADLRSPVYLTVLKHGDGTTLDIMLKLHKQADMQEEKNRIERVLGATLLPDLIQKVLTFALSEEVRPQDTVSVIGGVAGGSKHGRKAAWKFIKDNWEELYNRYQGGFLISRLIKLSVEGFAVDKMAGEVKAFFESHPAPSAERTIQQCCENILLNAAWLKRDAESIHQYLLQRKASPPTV
T3 sequence (P15144 whole entry): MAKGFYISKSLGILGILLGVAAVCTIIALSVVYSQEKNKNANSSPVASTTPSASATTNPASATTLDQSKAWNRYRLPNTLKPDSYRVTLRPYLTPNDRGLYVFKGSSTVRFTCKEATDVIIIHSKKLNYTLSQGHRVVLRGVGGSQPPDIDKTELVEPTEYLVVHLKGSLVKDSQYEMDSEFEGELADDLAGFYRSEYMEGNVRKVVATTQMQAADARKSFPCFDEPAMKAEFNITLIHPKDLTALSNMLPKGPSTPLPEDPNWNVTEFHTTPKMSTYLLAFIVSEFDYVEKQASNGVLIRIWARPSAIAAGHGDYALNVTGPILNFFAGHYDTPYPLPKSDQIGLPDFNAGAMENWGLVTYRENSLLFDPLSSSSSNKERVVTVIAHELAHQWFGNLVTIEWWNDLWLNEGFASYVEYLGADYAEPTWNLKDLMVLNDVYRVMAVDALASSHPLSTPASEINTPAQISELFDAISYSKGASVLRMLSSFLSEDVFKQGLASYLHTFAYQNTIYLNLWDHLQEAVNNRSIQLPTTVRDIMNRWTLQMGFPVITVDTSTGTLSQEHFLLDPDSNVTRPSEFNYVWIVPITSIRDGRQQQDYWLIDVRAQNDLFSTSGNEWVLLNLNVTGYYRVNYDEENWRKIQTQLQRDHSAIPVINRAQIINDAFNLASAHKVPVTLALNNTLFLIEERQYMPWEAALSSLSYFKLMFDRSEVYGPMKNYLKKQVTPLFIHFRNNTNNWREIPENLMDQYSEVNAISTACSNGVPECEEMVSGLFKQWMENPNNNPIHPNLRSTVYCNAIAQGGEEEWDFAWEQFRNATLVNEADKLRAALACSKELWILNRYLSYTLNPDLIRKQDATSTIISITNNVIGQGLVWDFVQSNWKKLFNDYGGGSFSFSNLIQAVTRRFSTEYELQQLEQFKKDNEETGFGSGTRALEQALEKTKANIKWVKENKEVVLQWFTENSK
T2 sequence (P27487 whole entry): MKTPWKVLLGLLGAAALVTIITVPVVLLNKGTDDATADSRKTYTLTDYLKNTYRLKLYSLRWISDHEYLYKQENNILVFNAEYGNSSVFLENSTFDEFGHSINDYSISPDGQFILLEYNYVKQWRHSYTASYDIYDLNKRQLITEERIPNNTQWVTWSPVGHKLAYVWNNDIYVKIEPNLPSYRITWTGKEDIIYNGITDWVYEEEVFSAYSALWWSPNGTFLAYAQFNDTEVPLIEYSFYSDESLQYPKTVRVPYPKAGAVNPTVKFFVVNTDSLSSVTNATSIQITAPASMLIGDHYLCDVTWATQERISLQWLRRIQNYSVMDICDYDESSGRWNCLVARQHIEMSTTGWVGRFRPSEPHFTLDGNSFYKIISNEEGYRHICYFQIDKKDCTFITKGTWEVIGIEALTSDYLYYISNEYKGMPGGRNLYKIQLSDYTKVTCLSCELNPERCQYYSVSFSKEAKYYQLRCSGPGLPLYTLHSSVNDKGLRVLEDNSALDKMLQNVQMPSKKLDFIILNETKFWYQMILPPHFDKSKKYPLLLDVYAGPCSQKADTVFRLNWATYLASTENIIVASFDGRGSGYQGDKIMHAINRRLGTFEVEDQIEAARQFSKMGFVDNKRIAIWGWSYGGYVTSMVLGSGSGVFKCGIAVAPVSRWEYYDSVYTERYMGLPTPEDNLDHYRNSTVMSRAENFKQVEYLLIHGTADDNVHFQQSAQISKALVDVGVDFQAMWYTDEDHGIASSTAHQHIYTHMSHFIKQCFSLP

| SMILES | IC50 [1] [µM] | meas. IC50 (cAAP) [2] | meas. IC50 (DP8/9) [3] | meas. IC50 (DPIV) [4] | IC50 ([5]; PHA-stimulated human T cells, 48 hours) [µM] | meas. IC50 (APN) [6] | IC50 ([7]; 48 hours) [µM] | IC50 ([1]; Homo sapiens) [µM] | IC50 [2] [µM] | IC50 ([5]; Homo sapiens, T-cell, 48 h) [µM] | IC50 ([7]; Homo sapiens, NHEK, 48 h) [µM] | IC50 ([6]; read-out: meas. IC50 (APN)) [µM] |
| --- | --- | --- | --- | --- | --- | --- | --- | --- | --- | --- | --- | --- |
| CC(C)(CNC(=O)CC(Cc1cc(F)ccc1F)NC(=O)OC(C)(C)C)CNC(=O)C(O)C(COCc1ccccc1)NC(=O)OC(C)(C)C (centres unmarked) [Compound C19.004] | 18.3 | no in- hibition | no in- hibition | no in- hibition | 9.7 | no in- hibition | 19.8 |  |  |  |  |  |
| CCCC(=O)OC(C(=O)Nc1cccc(C(=O)NCC(Cc2cc(F)ccc2F)NC(=O)OC(C)(C)C)c1)C(COCc1ccccc1)NC(=O)OC(C)(C)C (centres unmarked) [Compound C19.005] |  |  | no in- hibition | no in- hibition |  | no in- hibition |  | 10.7 | 5.7 | 11.5 | 3.65 |  |
| COc1ccc(COCC(NC(=O)OC(C)(C)C)C(O)C(=O)NCC(C)(C)CNC(=O)CC(Cc2cc(F)ccc2F)NC(=O)OC(C)(C)C)cc1 (centres unmarked) [Compound C19.006] |  |  | no in- hibition | no in- hibition |  | no in- hibition |  | 18.5 | 10.2 | 6.2 | 24.1 |  |
| CCCCCCCC(=O)OC(C(=O)NCC(C)(C)CNC(=O)CC(Cc1cc(F)ccc1F)NC(=O)OC(C)(C)C)C(COCc1ccc(OC)cc1)NC(=O)OC(C)(C)C (centres unmarked) [Compound C19.007] |  | no in- hibition | no in- hibition | no in- hibition |  | no in- hibition |  | 56.8 |  | 78.6 | ≥ 120 |  |
| CC(C)(CNC(=O)CC(Cc1cc(F)ccc1F)NC(=O)OCc1ccccc1)CNC(=O)C(O)C(COCc1ccccc1)NC(=O)OCc1ccccc1 (centres unmarked) [Compound C19.008] |  |  | no in- hibition | no in- hibition |  | no in- hibition |  | 8.6 | 5.8 | 5.7 | 6.77 |  |
| CCOC(=O)NC(CC(=O)NCC(C)(C)CNC(=O)C(O)C(COCc1ccccc1)NC(=O)OCC)Cc1cc(F)ccc1F (centres unmarked) [Compound C19.009] |  |  | no in- hibition | no in- hibition |  |  |  | 59.1 | 3.4 | 33.9 | 100 | 5.9 |
| CCCCCCCC(=O)NC(CC(=O)NCC(C)(C)CNC(=O)C(O)C(COCc1ccccc1)NC(=O)CCCCCCC)Cc1cc(F)ccc1F (centres unmarked) [Compound C19.010] |  |  | no in- hibition | no in- hibition |  | no in- hibition |  | 12.2 | 3.5 | 7.6 | 48.1 |  |
| CCCCCCCCCCCCCC(=O)NC(CC(=O)NCC(C)(C)CNC(=O)C(O)C(COCc1ccccc1)NC(=O)CCCCCCCCCCCCC)Cc1cc(F)ccc1F (centres unmarked) [Compound C19.011] |  | no in- hibition | no in- hibition | no in- hibition |  | no in- hibition |  | ≥ 155 |  | 168 | ≥ 110 |  |
| CCCCCC(=O)NC(CC(=O)NCC(C)(C)CNC(=O)C(O)C(COCc1ccccc1)NC(=O)CCCCC)Cc1cc(F)ccc1F (centres unmarked) [Compound C19.012] |  |  | no in- hibition | no in- hibition |  | no in- hibition |  | 28.6 | 0.51 | 12.2 | 17.5 |  |
| CCCCCC(=O)NC(CC(=O)NCC(C)(C)CNC(=O)C(O)C(COCc1ccc(OC)cc1)NC(=O)CCCCC)Cc1cc(F)ccc1F (centres unmarked) [Compound C19.013] |  | no in- hibition | no in- hibition | no in- hibition |  | no in- hibition |  | 17.4 |  | 6.5 | 15.3 |  |
| CCCCCC(=O)NC(CC(=O)NCC(C)(C)CNC(=O)C(OC(=O)CCCCC)C(COCc1ccccc1)NC(=O)CCCCC)Cc1cc(F)ccc1F (centres unmarked) [Compound C19.014] |  | no in- hibition | no in- hibition | no in- hibition |  | no in- hibition |  | ≥ 149 |  | 19.8 | 2.97 |  |

Source: patent publication US20120028995A1, “NOVEL COMPOUNDS FOR MEDICAL USE AS PEPTIDASE EFFECTORS” (IMTM GMBH, priority 2010, published 2012)
